Experimental data: the supplement of paper PMC10307832

How the values were obtained:
Test in all cases: relative viability (nuclei count vs DMSO), 5 days (fraction); higher = more cells survive
[1] = compound: O=C(CCCCCCNC(=O)c1cnc(N(c2ccccc2)c2ccccc2)nc1)NO [Ricolinostat] + CC1(C)CCC(c2ccc(Cl)cc2)=C(CN2CCN(c3ccc(C(=O)NS(=O)(=O)c4ccc(N[C@H](CCN5CCOCC5)CSc5ccccc5)c(S(=O)(=O)C(F)(F)F)c4)cc3)CC2)C1 [Navitoclax] (partner 0.5 µM)
Summary of the method: (§1)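 Cells from lung cancer lines were seeded into 1536-well plates and, one day later, dosed by pin tool. Treatments were either a single drug or a fixed dose of an anchor drug with five library-drug doses (not always all listed) in √10 steps. After 5 days, nuclei were stained in a one-step fixation (final 0.05% Triton X-100, 1% formaldehyde, 1 ug/ml Hoechst) and counted on 4× images, and relative viability is the treated-to-vehicle nuclei ratio, as the median of duplicate plates.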

[2] = compound: CC1=CN2C(=O)C=C(N=C2C(=C1)C(C)NC3=CC=CC=C3)N4CCOCC4 [TGX 221] + Cc1cc(Nc2cc(N3CCN(C)CC3)nc(Sc3ccc(NC(=O)C4CC4)cc3)n2)n[nH]1 [Tozasertib] (partner 0.1 µM)
Summary of the method: as §1

[3] = compound: O=C(CCCCCCNC(=O)c1cnc(N(c2ccccc2)c2ccccc2)nc1)NO [Ricolinostat] + NC(=O)Nc1cc(-c2cccc(F)c2)sc1C(=O)N[C@H]1CCCNC1 [AZD7762] (partner 0.2 µM)
Summary of the method: as §1

[4] = compound: C1=CC=C(C(=C1)C2=CC=C(C=C2)C3=CSC4=C3C(=C(C(=O)N4)C#N)O)O + Cc1nc(NC(=O)N2CCC[C@H]2C(N)=O)sc1-c1ccnc(C(C)(C)C(F)(F)F)c1 [Alpelisib] (partner 2 µM)
Summary of the method: as §1

Cell Line	relative viability ([1]; first compound 0.08 µM)	relative viability ([1]; first compound 0.253 µM)	relative viability ([1]; first compound 0.8 µM)	relative viability ([1]; first compound 2.53 µM)	relative viability ([2]; first compound 0.08 µM)	relative viability ([2]; first compound 0.253 µM)	relative viability ([2]; first compound 0.8 µM)	relative viability ([2]; first compound 2.53 µM)	relative viability ([2]; first compound 8 µM)	relative viability ([3]; first compound 0.08 µM)	relative viability ([3]; first compound 0.253 µM)	relative viability ([3]; first compound 0.8 µM)	relative viability ([3]; first compound 2.53 µM)	relative viability ([4]; first compound 0.08 µM)	relative viability ([4]; first compound 0.253 µM)	relative viability ([4]; first compound 0.8 µM)	relative viability ([4]; first compound 2.53 µM)	relative viability ([4]; first compound 8 µM)
NCI-H1734	0.645	0.826	0.924	0.78	0.247	0.247	0.263	0.263	0.271	0.45	0.68	0.372	0.235	0.658	0.675	0.697	0.724	0.542
NCI-H1755	0.864		0.981	0.912	0.522	0.499	0.521	0.538	0.428	0.38	0.444	0.439	0.422	0.861	0.957	0.941	1.03	0.883
NCI-H1793		0.547	0.499	0.853	0.311	0.239	0.244	0.16	0.166	0.387	0.414	0.314	0.206	0.699	0.624	0.598	0.581	0.45
NCI-H1915	0.797	0.746	0.778	0.712	0.399	0.406	0.422	0.389	0.377	0.652	0.653	0.685	0.573	1.11	1.07	1.07	1.08	0.991
NCI-H1944	0.993	0.972	1.04	0.901	0.237	0.223	0.241	0.244	0.2	0.463	0.483	0.354	0.21	0.806	0.952	0.888	0.856	0.864
NCI-H1975	1.07	1.1		0.877	0.759	0.685	0.761	0.569	0.382	0.66	0.768	0.592	0.705	0.508	0.694	0.542	0.721	0.485
NCI-H1993	0.798	1.11	1.01	1.04	0.498	0.53	0.553	0.482	0.572	0.53	0.884	0.55	0.459	0.684	0.624	0.69	0.594	0.655
NCI-H2085		1.14	1	0.947	0.792	0.729	0.598	0.541	0.427		0.912	0.934	0.784	0.872	1.08	1	0.973	0.879
NCI-H2087	0.96	1.04	1.02	1.04	0.254	0.269	0.231	0.217	0.233	1.24	1.27	1.07	0.973	1.07	1.27	1.16	1.11	1.13
NCI-H2126	0.666	0.807	0.836	0.679	0.826	0.886	0.797	0.768	0.756	0.865	1.04	0.971	0.887	0.784	0.809	0.748	0.77	0.731
NCI-H2170	0.607	0.495	0.633	0.662	0.658	0.666	0.626	0.731	0.67	0.815	0.858	1.01	0.928	0.797	0.79	0.884	0.786	0.685
NCI-H2347	0.623	0.739	0.73	0.671	0.514	0.418	0.538	0.422	0.33	0.57	0.718	0.665	0.478	0.959	1.09	0.968	1.04	0.964
NCI-H2405	0.577	0.935	0.975	0.77	0.737	0.771	0.693	0.745	0.697	0.698	0.781	0.738	0.76	0.761	0.834	0.867	0.715	0.715
NCI-H3122	0.918	0.984	1.07	1.14	0.368	0.402	0.372	0.34	0.379	0.838	1.03	1.01	1.12	0.795	0.909	0.89	0.844	0.902
PC-3 [JPC-3]	0.778	0.77	0.739	0.574	0.822	0.913	0.838	0.856	0.833	0.54	0.695	0.679	0.665	1.17	1.05	1.06	1.12	1.01
PC-14	0.968	0.947	1.05	0.962	0.619	0.615	0.631	0.589	0.459	0.26	0.321	0.306	0.26	0.761	1.17	0.853	0.981	0.71
RERF-LC-KJ	0.831	0.993	0.841	0.787	0.465	0.555	0.496	0.488	0.382	0.864	0.916	0.832	0.894	0.769	0.935	0.961	0.782	0.69
